# Data taken from patent publication US7749969B2, “N- or C- terminally modified small peptides” (Zealand Pharma A/S, priority 2005, dated 2010).
# Square brackets hold non-standard residues; d marks the D form. Peptide text beside a SMILES is read from it. * marks the point of attachment. Bz = O=C(c1ccccc1)*
# What was measured:
# [1] = system: calcium-induced arrhythmias; test: Calcium-induced arrhythmia model (time lag to conduction block after CaCl2 infusion); type: in vivo, mouse; conditions: male NMRI mice; 1 nmol/kg i.v. 3 min before CaCl2 infusion; (tarr test compound − tarr vehicle)×100/tarr vehicle
# Procedure: Peptides suitable for administration to cardiac cells can be identified in an in vivo model of calcium-induced arrhythmias according to the model of Lynch et al. (1981) J Cardiovasc. Pharmacol. 3:49-60. Mice (25-30 g) are anaesthetized with a neurolept anaesthetic combination and an i.v. cannula is inserted into the tail vein. A lead II ECG signal is recorded continuously by positioning a stainless steel ECG electrodes on the right forelimb and on the left hind limb. The ground electrode is placed on the right hind limb. The signal is amplified (×5.000-10.000) and filtered (0.1-150 Hz) via a Hugo Sachs Electronic model 689 ECG module. The analogue signal is digitized via a 12 bit data acquisition board (Data Translation model DT321) and sampled at 1000 Hz using the Notocord HEM 3.1 software for Windows NT. After a 10-minute equilibration period, the test sample of compound is injected into the tail vein. Mice pre-treated with buffer are tested as a measure of the control level in untreated animals. The injection volume is 100 μl in all experiments.
# Infusion of CaCl2 (30 mg/ml, 0.1 ml/min≈100 mg/kg/min (calcium chloride-2-hydrate, Riedel-de Haën, Germany)) is started 3 min after i.v. administration of drug or vehicle. The time lag to onset of 2nd degree AV-block is determined as the time from the start of CaCl2 infusion until the first arrhythmic event occurs. An event of 2nd degree AV-block is defined as intermittent failure of the AV conduction characterised by a P-wave without the concomitant QRS complex.
# Responses are expressed relative to the time until 2nd degree AV-block occurred in vehicle treated mice. The maximal effect of compounds (e.g., N- or C-terminally modified peptides of the invention, AAP, AAP10 or controls) is determined. […] Preferably, the compounds provide at least about 40% of the activity of AAP, for example at least about 50% of the activity of AAP, such as about 60% of the activity of AAP, for example at least about 70% of the activity of AAP, such as at least about 80% of the activity of AAP, for example at least about 90% of the activity of AAP, for example at least about substantially the same activity of AAP, such as about 110% of the activity of AAP, for example at least about 120% of the activity of AAP, such as at least about 130% of the activity of AAP, for example at least about 140% of the activity of AAP, such as about 150% of the activity of AAP, for example at least about 160% of the activity of AAP, such as at least about 170% of the activity of AAP, for example at least about 180% of the activity of AAP, preferably at least about 190% of the activity of AAP, more preferably at least about 200 or greater % of the activity of AAP (i.e., the compounds show time lags of approximately the same duration as induced by AAP).
# The anti-arrhythmic effect of the present compounds was tested in a model of calcium-induced arrhythmias according to the model of Lynch et al., J. Cardiovasc. Pharmacol. (1981), 3: 49-60. Male NMRI mice (25-30 grams; Bomholdtgaard, L I. Skendsved, Denmark) were anesthetized with a neurolept anesthetic combination (Hynorm® (fentanyl citrate 0.315 mg/mL and fuanisone 10 mg/mL) and midazolam at 5 mg/mL. Commercial solutions of Hynorm® and midazolam were diluted 1:1 in distilled water, and one part Hynorm® was mixed with one part diluted midazolam. Anesthesia is induced by s.c. administration of this solution in a dose of 50-75 μL/10 gram mouse.
# An intravenous cannula was inserted into the tail vein. The lead II ECG signal was recorded continuously by positioning of stainless steel ECG electrodes on the right forelimb and on the left hind limb. The ground electrode was placed on the right hind limb. The signal was amplified (×5.000-10.000) and filtered (0.1-150 Hz) via a Hugo Sachs Electronic model 689 ECG module. […]
# CYP 3A4 = CYP 3A4 (Homo sapiens, UniProt P08684); test: Cytochrome P450 oxidase (CYP) inhibition, fluorescent probe; type: in vitro ADME; conditions: recombinant human CYP isozyme 3A4
# Chain of CYP 3A4 (P08684 whole entry): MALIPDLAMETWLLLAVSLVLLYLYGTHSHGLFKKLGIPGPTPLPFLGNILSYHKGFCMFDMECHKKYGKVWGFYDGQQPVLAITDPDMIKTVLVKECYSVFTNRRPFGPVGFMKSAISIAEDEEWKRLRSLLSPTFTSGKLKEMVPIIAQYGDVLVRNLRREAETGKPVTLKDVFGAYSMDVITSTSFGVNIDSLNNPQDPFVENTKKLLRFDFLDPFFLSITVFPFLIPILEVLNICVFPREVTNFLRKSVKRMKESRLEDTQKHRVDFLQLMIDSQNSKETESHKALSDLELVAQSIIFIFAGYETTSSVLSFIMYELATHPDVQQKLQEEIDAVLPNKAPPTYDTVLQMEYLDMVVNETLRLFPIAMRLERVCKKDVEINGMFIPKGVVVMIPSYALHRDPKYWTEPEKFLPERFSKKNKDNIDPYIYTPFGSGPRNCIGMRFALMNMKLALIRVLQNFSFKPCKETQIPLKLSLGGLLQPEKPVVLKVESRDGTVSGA
# Text: Cytochrome P450 enzymes (CYPs) constitute a superfamily of heme proteins involved in the metabolism of endogenous and exogenous compounds in living organisms. In particular, a number of CYP isozymes are important in the oxidative metabolism of drug molecules. Interactions with these enzymes could lead to altered pharmacokinetic parameters, such as half life, Cmax, or AUC of other co-administered drug molecules. To reduce this kind of interaction in vitro screening of drug candidates for inhibition of drug-metabolizing CYPs has been carried out.
# Cytochrome P oxidase (CYP) Inhibition: The compound solution is added to a mixture of recombinant human CYP isozymes, NADPH regenerating solution, buffer, and “probe” compounds for each isozyme. The degree of reduction in the rate of metabolism of the probe to a fluorescent metabolite is an indication of the potential CYP inhibition of the test compound. The CYP 450 isozyme tested is 3A4.
# [2] = PAMPA-BBB permeability test (brain lipid artificial membrane); type: in vitro ADME; conditions: brain lipid 20% in dodecane; pH 7.4 buffer; 14 hr diffusion
# Text: The compounds of the invention show desirable pharmacokinetic profiles as evidenced from data obtained when testing the permeability of the compounds across a synthetic biomimetic membrane that resembles the blood brain barrier (PAMPA-BBB) and the compounds ability to inhibit the activity of cytochrome P 450 oxidase isozyme 3A4. Normally it is desirous to avoid having drugs targeting the cardiovascular systems and other non-CNS ailments such as osteoporosis being less able to cross the blood brain barrier and thus penetrate into the central nervous system.
# Permeability test: Compounds in DMSO solution are added to pH 7.4 buffer in a 96 well plate (“donor”). The buffer is placed in contact with a 96 well filter plate in which the pours have been filled with an artificial membrane (2% phosphatidyl choline in dodecane). The top wells of the filter plate are filled with aqueous buffer (“acceptor”). Compound molecules diffuse into the artificial membrane and then into the acceptor buffer. After a 14 hr diffusion experiment, the donor and acceptor wells are measured on a UV plate reader and compared to a standard. The experiment is termed “PAMPA”. Permeability-BBB: The PAMPA experiment above is repeated using brain lipid (20% in dodecane) to provide a prediction of blood-brain barrier permeation by passive diffusion.
Molecule,% response (increase of time lag to onset of arrhythmias relative to vehicle) [1],CYP450 Inhibition at 3 μM (% Inhibition) CYP 3A4 (CYP 3A4),PAMPA-BBB [2]
"NC(=O)[C@H](Cc1ccc(O)cc1)NC(=O)CNC(=O)CO [Compound 2, N-(hydroxyacetyl)-Gly-Tyr-NH2]",48.7%,,
"CN(CC(=O)O)C(=O)[C@@H](N)CCCCNC(=O)c1ccc([N+](=O)[O-])cc1 [WO2004/048400 8, H-K(4-nitrobenzoyl)-Sar-OH, reference compound]",,15–25 % Inhibition,
"N[C@@H](CCCCNC(=O)c1ccc([N+](=O)[O-])cc1)C(=O)NCC(=O)O [WO2004/048400 7, H-K(4-nitrobenzoyl)-G-OH, reference compound]",,15–25 % Inhibition,
CC(=O)OCC(=O)N[C@@H](CC(N)=O)C(=O)N[C@@H](Cc1ccc(O)cc1)C(N)=O [Compound 8],16.5%,<15 % Inhibition,0 10^−6 cm/s
"NC(=O)CNC(=O)[C@H](CC(N)=O)NC(=O)Cc1cc(=O)oc2cc(O)ccc12 [Compound 1, N-(7-hydroxycoumarin-4-acetyl)-Asn-Gly-NH2]",20.9%,,
"COc1ccc(CNC(=O)C[C@H](N)C(=O)N[C@H](C)C(=O)O)cc1 [WO2004/048400 80, H-Asn(4-methoxybenzyl)-DAla-OH, reference compound]",,15–25 % Inhibition,
"NC(=O)C[C@@H](NC(=O)Cc1cc(=O)oc2cc(O)ccc12)C(=O)NCC(=O)O [Compound 15, N-(7-hydroxycoumarin-4-acetyl)-D-Asn-Gly-OH]",28.5%,,
"NCC(=O)N[C@@H](CC(N)=O)C(=O)NCc1ccc2ccc3cccc4ccc1c2c34 [Compound 12, H-Gly-Asn-NH(pyrenylmethyl)]",38.0%,<15 % Inhibition,0 10^−6 cm/s
"NC(=O)C[C@H](NC(=O)CS)C(=O)N[C@@H](Cc1ccc(O)cc1)C(N)=O [Compound 7, N-(thiohydroxyacteyl)-Asn-Tyr-NH2]",,<15 % Inhibition,0 10^−6 cm/s
H-Gly-Asn-NH(4-nitrophenyl) [Compound 10],38.0%,<15 % Inhibition,0 10^−6 cm/s
"COCC(=O)N[C@@H](CC(N)=O)C(=O)N[C@@H](Cc1ccc(O)cc1)C(N)=O [Compound 16, (Methoxyacetyl)-Asn-Tyr-NH2]",,<15 % Inhibition,0 10^−6 cm/s
"N[C@H](CCCCNC(=O)c1ccccc1)C(=O)NCC(=O)O [WO2004/048400 23, H-DLys(benzoyl)-G-OH, reference compound] (H-[dK](Bz)-Gly-OH)",,15–25 % Inhibition,
